This passage reports IC50 results from BindingDB's records for patent US9796704 (SYMPHONY EVOLUTION, INC., 2017).

Test in all cases: AlphaScreen Assay
Test [1] addresses T1, Ephrin type-B receptor 4 (Homo sapiens, UniProt P54760).
T1 sequence (P54760 whole entry): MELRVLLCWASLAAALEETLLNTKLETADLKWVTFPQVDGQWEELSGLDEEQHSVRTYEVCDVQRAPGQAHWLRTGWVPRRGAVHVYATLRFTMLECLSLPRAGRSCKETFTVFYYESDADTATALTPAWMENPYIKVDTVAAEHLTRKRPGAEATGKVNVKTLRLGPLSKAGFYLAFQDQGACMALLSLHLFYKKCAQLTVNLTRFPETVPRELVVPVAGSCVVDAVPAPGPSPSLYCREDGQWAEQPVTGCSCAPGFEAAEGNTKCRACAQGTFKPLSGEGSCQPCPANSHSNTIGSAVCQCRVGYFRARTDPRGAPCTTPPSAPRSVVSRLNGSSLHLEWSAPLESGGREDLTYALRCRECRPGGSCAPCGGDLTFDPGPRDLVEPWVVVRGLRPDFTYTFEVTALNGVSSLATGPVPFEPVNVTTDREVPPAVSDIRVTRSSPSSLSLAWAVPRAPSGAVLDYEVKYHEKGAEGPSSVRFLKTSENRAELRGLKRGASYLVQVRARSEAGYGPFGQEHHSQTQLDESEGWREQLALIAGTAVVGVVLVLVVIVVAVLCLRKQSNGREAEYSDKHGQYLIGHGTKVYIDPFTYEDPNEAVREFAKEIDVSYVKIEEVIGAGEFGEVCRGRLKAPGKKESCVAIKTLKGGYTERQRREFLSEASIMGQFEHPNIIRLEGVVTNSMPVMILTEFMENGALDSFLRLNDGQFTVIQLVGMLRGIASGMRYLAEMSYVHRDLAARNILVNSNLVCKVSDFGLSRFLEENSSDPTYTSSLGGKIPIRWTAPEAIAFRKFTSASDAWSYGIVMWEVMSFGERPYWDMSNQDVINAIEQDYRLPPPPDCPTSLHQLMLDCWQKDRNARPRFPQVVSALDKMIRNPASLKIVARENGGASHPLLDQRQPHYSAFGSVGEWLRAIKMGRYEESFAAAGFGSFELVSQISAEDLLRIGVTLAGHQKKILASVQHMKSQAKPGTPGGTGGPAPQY

For test [2], the target named is Ephrin type-A receptor 2 (Homo sapiens, UniProt P29317).
In test [3] the target is Vascular endothelial growth factor receptor 2 (Homo sapiens, UniProt P35968).
Test [4] addresses Vascular endothelial growth factor receptor 1 (Homo sapiens, UniProt P17948).
Test [5] addresses Receptor tyrosine-protein kinase erbB-2 (Homo sapiens, UniProt P04626).

Vascular endothelial growth factor receptor 2, sequence (P35968 whole entry): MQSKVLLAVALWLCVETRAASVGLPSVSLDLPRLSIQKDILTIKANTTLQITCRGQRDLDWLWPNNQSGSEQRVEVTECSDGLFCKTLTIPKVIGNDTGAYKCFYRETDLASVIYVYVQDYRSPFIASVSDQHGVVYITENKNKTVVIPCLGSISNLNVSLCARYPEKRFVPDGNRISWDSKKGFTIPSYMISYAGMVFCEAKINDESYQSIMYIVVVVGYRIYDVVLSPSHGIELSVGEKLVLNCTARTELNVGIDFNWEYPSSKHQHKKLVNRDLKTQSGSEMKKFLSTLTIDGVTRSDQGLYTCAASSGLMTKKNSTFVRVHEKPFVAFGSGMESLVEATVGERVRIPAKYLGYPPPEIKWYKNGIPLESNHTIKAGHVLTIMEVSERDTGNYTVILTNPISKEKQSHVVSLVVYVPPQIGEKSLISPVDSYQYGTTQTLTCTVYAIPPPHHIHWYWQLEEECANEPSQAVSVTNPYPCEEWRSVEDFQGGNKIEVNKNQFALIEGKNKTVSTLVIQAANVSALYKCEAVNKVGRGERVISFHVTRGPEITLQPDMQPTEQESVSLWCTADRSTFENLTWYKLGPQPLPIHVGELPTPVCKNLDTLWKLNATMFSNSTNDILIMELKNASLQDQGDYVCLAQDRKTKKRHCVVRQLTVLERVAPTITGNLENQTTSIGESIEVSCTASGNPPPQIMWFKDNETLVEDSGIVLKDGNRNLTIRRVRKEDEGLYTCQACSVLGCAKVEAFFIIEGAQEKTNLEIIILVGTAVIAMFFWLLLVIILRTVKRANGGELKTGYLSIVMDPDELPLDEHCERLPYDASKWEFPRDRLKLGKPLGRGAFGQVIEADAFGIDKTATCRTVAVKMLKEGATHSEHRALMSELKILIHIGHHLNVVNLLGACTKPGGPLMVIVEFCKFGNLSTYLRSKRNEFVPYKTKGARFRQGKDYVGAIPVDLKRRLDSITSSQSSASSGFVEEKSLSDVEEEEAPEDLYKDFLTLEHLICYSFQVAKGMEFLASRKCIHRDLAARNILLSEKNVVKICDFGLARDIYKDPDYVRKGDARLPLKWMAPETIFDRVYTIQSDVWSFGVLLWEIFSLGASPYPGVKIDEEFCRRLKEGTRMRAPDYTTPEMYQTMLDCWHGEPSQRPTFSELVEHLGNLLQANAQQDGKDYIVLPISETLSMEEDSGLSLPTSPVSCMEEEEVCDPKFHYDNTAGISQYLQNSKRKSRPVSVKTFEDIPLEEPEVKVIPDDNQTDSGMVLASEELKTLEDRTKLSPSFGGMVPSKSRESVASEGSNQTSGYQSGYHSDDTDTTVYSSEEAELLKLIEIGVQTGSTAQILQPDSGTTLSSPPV
Receptor tyrosine-protein kinase erbB-2, sequence (P04626 whole entry): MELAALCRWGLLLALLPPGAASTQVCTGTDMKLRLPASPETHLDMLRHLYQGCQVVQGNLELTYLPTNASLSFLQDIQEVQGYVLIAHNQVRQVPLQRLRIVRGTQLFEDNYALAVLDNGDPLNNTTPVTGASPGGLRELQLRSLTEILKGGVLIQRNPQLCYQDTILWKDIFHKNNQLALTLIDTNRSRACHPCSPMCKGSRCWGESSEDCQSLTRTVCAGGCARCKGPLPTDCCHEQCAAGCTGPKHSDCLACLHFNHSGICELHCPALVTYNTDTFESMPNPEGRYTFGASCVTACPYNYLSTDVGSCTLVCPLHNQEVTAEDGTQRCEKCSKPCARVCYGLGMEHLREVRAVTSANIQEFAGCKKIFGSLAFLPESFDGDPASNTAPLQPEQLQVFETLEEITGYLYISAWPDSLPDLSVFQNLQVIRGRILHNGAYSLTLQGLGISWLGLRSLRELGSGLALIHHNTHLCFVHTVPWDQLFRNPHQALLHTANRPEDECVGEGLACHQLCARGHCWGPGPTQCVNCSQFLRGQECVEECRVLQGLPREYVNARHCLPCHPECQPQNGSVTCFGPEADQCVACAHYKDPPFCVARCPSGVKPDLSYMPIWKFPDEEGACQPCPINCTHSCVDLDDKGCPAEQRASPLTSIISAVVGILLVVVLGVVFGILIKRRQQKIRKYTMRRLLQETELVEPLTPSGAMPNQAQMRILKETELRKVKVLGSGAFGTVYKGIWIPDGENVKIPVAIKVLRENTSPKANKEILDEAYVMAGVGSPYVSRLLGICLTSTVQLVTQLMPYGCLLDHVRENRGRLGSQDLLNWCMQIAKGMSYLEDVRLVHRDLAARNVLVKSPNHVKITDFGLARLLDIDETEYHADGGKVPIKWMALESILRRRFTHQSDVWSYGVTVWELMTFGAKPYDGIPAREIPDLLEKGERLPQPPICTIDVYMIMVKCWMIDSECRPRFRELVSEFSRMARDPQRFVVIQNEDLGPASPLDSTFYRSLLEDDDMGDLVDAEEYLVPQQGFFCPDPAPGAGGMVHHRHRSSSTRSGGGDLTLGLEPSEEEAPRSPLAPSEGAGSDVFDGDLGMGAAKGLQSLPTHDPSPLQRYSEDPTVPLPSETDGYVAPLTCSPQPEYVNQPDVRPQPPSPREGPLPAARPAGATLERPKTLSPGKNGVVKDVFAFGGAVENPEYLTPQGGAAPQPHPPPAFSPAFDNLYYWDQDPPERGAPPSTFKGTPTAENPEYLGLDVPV
Ephrin type-A receptor 2, sequence (P29317 whole entry): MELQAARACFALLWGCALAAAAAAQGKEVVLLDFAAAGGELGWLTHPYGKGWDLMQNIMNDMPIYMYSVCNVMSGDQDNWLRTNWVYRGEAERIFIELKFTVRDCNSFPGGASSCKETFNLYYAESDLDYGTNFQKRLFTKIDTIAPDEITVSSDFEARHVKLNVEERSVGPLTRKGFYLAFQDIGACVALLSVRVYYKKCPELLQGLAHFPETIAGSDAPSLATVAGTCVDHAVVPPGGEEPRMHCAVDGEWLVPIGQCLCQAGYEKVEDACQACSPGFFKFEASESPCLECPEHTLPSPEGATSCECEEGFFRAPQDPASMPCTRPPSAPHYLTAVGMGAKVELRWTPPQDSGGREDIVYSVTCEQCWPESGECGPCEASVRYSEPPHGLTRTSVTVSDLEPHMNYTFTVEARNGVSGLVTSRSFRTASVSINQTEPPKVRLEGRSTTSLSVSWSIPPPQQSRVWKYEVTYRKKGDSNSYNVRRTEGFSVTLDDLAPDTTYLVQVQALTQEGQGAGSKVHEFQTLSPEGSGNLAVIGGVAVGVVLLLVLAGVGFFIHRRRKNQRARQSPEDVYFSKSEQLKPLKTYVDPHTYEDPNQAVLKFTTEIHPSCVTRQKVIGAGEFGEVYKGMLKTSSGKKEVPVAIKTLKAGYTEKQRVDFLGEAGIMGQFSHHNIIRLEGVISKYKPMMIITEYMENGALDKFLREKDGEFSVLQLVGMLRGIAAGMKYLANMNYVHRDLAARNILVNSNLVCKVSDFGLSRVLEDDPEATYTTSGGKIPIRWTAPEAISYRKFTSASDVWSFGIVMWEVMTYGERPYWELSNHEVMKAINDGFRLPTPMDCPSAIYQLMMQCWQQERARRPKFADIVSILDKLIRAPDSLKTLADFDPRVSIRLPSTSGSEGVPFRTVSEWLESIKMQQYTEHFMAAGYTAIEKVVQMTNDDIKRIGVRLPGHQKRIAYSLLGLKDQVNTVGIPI
Vascular endothelial growth factor receptor 1, sequence (P17948 whole entry): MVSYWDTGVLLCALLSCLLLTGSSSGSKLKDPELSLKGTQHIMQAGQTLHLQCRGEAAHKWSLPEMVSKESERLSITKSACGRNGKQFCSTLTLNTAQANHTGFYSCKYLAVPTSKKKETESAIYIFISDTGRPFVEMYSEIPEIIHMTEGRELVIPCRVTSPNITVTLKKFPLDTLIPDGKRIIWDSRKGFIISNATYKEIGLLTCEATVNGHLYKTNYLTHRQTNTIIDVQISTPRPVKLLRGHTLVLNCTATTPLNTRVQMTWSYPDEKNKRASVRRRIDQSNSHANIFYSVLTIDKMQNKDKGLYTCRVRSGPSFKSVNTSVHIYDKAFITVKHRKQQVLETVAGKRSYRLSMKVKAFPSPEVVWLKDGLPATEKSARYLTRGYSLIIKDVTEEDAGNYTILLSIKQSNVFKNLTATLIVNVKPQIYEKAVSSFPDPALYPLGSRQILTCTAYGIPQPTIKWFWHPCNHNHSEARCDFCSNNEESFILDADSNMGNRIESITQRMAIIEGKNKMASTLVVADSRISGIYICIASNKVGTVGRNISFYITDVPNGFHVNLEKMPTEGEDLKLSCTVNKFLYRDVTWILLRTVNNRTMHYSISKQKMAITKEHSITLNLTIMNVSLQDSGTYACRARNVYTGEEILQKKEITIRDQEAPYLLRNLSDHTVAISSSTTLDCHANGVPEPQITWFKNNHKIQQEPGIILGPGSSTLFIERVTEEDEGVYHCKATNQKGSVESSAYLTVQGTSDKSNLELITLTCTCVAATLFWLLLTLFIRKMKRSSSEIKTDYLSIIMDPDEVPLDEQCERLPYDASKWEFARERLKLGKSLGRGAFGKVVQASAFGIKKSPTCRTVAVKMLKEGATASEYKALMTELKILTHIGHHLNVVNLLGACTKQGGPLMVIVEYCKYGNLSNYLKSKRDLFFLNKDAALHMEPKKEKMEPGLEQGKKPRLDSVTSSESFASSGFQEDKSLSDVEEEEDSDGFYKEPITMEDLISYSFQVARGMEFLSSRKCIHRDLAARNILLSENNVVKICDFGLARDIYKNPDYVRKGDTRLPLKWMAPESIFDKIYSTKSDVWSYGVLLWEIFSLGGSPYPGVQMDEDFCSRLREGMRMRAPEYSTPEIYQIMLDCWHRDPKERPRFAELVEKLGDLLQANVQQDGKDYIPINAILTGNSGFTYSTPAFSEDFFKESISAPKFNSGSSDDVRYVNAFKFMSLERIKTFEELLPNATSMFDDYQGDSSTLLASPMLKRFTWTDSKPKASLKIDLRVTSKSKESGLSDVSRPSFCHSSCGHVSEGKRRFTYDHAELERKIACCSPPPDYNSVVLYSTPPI

For the compound `COc1cc2c(Nc3ccc(F)c(Cl)c3F)ncnc2cc1OC[C@@H]1CN2CCC[C@H]2CO1` [US9796704, Entry 38], the IC50 entry in test [1] was “in the range around 525 nM”; in test [2] it was “in the range around 525 nM”; in test [3], below 50 nM; in test [4], “in the range around 10500 nM”; in test [5] it was below 50 nM.

For `COc1cc2c(Nc3ccc(Cl)c(Cl)c3F)ncnc2cc1OC[C@@H]1CN2CCOCC2CO1` (stereo not given in full) [US9796704, Entry 22], the IC50 entry in test [1] was “in the range around 10500 nM”; in test [2] it was “in the range around 10500 nM”; in test [3], “in the range around 10500 nM”; in test [4], “in the range around 525 nM”; in test [5], “in the range around 525 nM”.
